# Measurements from patent US20260206756A1, “COMPOUNDS AND METHODS OF TREATING OR PREVENTING A BACTERIAL INFECTION IN A PLANT” (Ohio State Innovation Foundation, priority 2023, published 2026).
# “Also recorded” adds a separate entry of the source. Read-outs that look alike come from different tables or passages of the source.
# How the values were obtained:
# [1] = test system: ‘California Wonder’ pepper seedlings; test: Phytotoxicity on pepper seedling cotyledons; type: in vivo, Capsicum annuum; details: 7 days post application; PCs 200 μM; 1.2% thymol; 2% 2,4-D
# Description: (§1) Phytotoxicity of the ten selected PCs on pepper tissues. The toxicity of the PCs to plant tissues was assessed on pepper seeds, seedlings, and fruits. […]
# Toxicity on seedlings. ‘California Wonder’ pepper seeds were sown in sterile 2 ml glass vials containing 1.5 ml of 1% molten water agar. Four seeds were sown in each vial and incubated for 14 days in the dark at room temperature for the seedlings to sprout. Fifty microliters of PCs (200 μM final concentration) were deposited onto the cotyledons of the seedlings and incubated for another 7 days. After 7 days, necrotic and chlorotic symptoms were assessed for 16 treated seedlings per treatment group. This was performed twice.
# [2] = test system: ‘California Wonder’ pepper seeds; test: Phytotoxicity on pepper seeds (germination, root and shoot length); type: in vivo, Capsicum annuum; details: 14 days post treatment; PCs 200 μM; 1.2% thymol; 2% 2,4-D
# Description: as §1
# Toxicity on seeds. In 2 ml sterile glass vials, 1.5 ml of 1% molten water agar was prepared and supplemented with 200 μM of PCs. Four seeds (‘California Wonder’) were sown into the vials. […] After incubation, seed germination percentage, germling root and shoot length, and necrotic and chlorotic symptoms were recorded from eight treated seeds per treatment group. This was performed twice.
# [3] = test system: ‘Sunset’ sweet bell pepper fruit; test: Phytotoxicity on bell pepper fruits; type: in vivo, Capsicum annuum; details: 7 days post treatment; PCs 200 μM; 1.2% thymol; 2% 2,4-D
# Description: as §1
# Toxicity on bell pepper fruits. Pepper fruits were thoroughly washed in soapy water and dried prior to PC treatment. On the surface of each fruit Sul of the PCs (200 μM final concentration) were deposited and air dried under a laminar hood for 30 min. The fruits were incubated in the dark at room temperature and monitored daily for necrotic and chlorotic symptoms. This was performed twice.
# [4] = test system: Pss SM1042-14R in infested pepper seeds; test: Antimicrobial efficacy on pepper seeds artificially infested with Pss; type: in vivo, Pseudomonas syringae pv. syringae; details: 20 days post infestation, 200 μM, 20 min soak
# Description: Antimicrobial efficacy of ten selected PCs on pepper seeds artificially infested with Pss SM1042-14R. ‘California Wonder’ pepper seeds were used for artificial infestation with Pss SM1042-14R and PC treatment. Inoculum of Pss SM1042-14R was prepared by growing SM1042-14R in M9 minimal medium overnight as described above. The OD600 was adjusted to 0.1; approximately 1×10^8 CFU/ml. The adjusted inoculum (45 ml of inoculum for 4 g seeds) was transferred to a sterile glass beaker and placed in a Nucerite desiccator (Nalge Sybron, Milwaukee, WI, USA). Seeds were vacuum infiltrated with inoculum at 15 PSI for 5 min. Infested seeds were air-dried in a laminar flow hood at room temperature for 12 h. The dried seeds were transferred to 5 ml sterile tubes and soaked in 1 ml of PCs (200 μM) diluted in sterile water for 20 min. The seeds were air-dried again. Seed aliquots were collected at 1, 3-, 10-, 20-, and 30-days post infestation (dpi, 10 seeds per treatment group per time point). Bacterial populations were estimated by macerating five batches of two seeds per treatment group in 400 μl of 1×PBS in a Whirl Pak bag. […] This was performed twice.
# [5] = test system: Pss SM1042-14R on pepper seedlings; type: in vivo, Pseudomonas syringae pv. syringae; details: 200 μM, 7 dpi; for Pseudomonas leaf spot incidence, Curative application / Pseudomonas leaf spot incidence, Preventative application: streptomycin 200 μg/ml, CuSO4 200 μM
# [6] = test system: Pseudomonas syringae pv. syringae (Pss) SM109-18; test: Dose-response assay (MIC/MBC) in M9 minimal broth; details: 48 h
# Description: (§2) Primary screening of 4,182 SMs was conducted using a high throughput screening method to identify SMs that inhibited the growth of Pss SM1042-14R strain. A fresh bacterial culture of SM1042-14R was grown in M9 minimal broth in a shaking incubator (180 rpm) for 12 h at 28° C. The bacterial culture was normalized to a final optical density (OD600) of 0.05 (c.a., 8.0×10^7 CFU/ml) using a Genesys 20 spectrophotometer (Thermo Scientific, Rockford, IL, USA). In a sterile flat-bottom 96-well plate, 98 μl of the normalized bacterial suspension was challenged with 2 μl of SMs (final concentration of 200 μM). Controls were bacteria challenged with 2% DMSO (positive control; μc+), 50 μg/ml kanamycin (negative control; μc−), or M9 broth alone (blank control). The plate was incubated in a Sunrise Tecan kinetic microplate reader (Tecan Group Ltd., San Jose, CA, USA) for 48 h at 28° C. OD600 was measured every 30 min.
# (§3) The plate was agitated for 15 s at 180 rpm before reading the OD600. Growth inhibition of SM1042-14R by the SMs was calculated using the following formula: % of inhibition=(μc+−X)/(μc+−μc−)×100, where μc+ and μc− is the average final OD600 of the positive and negative controls, respectively, and X is the final OD600 of each of the bacterial culture treated with a designated SM. After the 48 h of incubation with the SMs at 28° C., the viability of the bacterial culture was assessed by plating 5 μl of the culture on YDC (Yeast Dextrose Carbonate) agar medium, incubating the plate at 28° C. and monitoring any bacterial colonies on the plate after 48 h.
# (§4) A dose-response assay was conducted with the 15 PCs identified during the primary screening against 10 Pss strains including the model strain, SM1042-14R. The dose-response assay was conducted as described above with concentrations of PCs ranging from 3.125 to 500 μM. Pss treated with non-amended M9 minimal media, 2% DMSO, or 50 μg/ml kanamycin were used as controls. The plate was incubated in a Sunrise Tecan kinetic microplate reader for 48 h at 28° C. The percentage of inhibition and cell viability were determined as described above.
# [7] = test system: Pseudomonas syringae pv. syringae (Pss) SM1038-14; test: Dose-response assay (MIC/MBC) in M9 minimal broth; details: 48 h
# Description: (§5) Minimum inhibitory concentration (MIC) and minimum bactericidal concentration (MBC) of the 15 PCs against 10 Pss strains. A dose-response assay was conducted with the 15 PCs identified during the primary screening against 10 Pss strains including the model strain, SM1042-14R. The dose-response assay was conducted as described above with concentrations of PCs ranging from 3.125 to 500 μM. Pss treated with non-amended M9 minimal media, 2% DMSO, or 50 μg/ml kanamycin were used as controls. The plate was incubated in a Sunrise Tecan kinetic microplate reader for 48 h at 28° C. The percentage of inhibition and cell viability were determined as described above.
# [8] = test system: Pseudomonas syringae pv. syringae (Pss) SM51-19; test: Dose-response assay (MIC/MBC) in M9 minimal broth; details: 48 h
# Description: as §5
# [9] = test system: Pseudomonas syringae pv. syringae (Pss) SM1030-14; test: Dose-response assay (MIC/MBC) in M9 minimal broth; details: 48 h
# Description: as §2, §3, §4
# [10] = test system: Pseudomonas syringae pv. syringae (Pss) SM155-18; test: Dose-response assay (MIC/MBC) in M9 minimal broth; details: 48 h
# Description: as §2, §3, §4
# [11] = test system: Pseudomonas syringae pv. syringae (Pss) SM04-2018-04; test: Dose-response assay (MIC/MBC) in M9 minimal broth; details: 48 h
# Description: as §5
# [12] = test system: Pseudomonas syringae pv. syringae (Pss) SM914-13; test: Dose-response assay (MIC/MBC) in M9 minimal broth; details: 48 h
# Description: as §5
# [13] = test system: Pseudomonas syringae pv. syringae (Pss) SM1031-14; test: Dose-response assay (MIC/MBC) in M9 minimal broth; details: 48 h
# Description: as §2, §3, §4
# [14] = test system: Pseudomonas syringae pv. syringae (Pss) SM156-18; test: Dose-response assay (MIC/MBC) in M9 minimal broth; details: 48 h
# Description: as §5
# [15] = test system: Pseudomonas syringae pv. syringae (Pss) SM1042-14R; test: Dose-response assay (MIC/MBC) in M9 minimal broth; details: strain SM1042-14R, 48 h, 28° C.
# Description: as §2, §3, §4
# [16] = preventative (1 day prior to inoculation)
# [17] = strain SM109-18, M9 broth, 28° C.
# [18] = strain SM1038-14, M9 broth, 28° C.
# [19] = strain SM51-19, M9 broth, 28° C.
# [20] = strain SM1030-14, M9 broth, 28° C.
# [21] = strain SM155-18, M9 broth, 28° C.
# [22] = strain SM04-2018-04, M9 broth, 28° C.
# [23] = strain SM914-13, M9 broth, 28° C.
# [24] = strain SM1031-14, M9 broth, 28° C.
# [25] = strain SM156-18, M9 broth, 28° C.
Compound,"Pseudomonas leaf spot incidence, Curative application [5]","Pseudomonas leaf spot incidence, Preventative application [5]",MBC ([6]; Pseudomonas syringae),MIC ([6]; Pseudomonas syringae),MBC ([7]; Pseudomonas syringae),MIC ([7]; Pseudomonas syringae),MBC ([8]; Pseudomonas syringae),MIC ([8]; Pseudomonas syringae),MBC ([9]; Pseudomonas syringae),MIC ([9]; Pseudomonas syringae),MBC ([10]; Pseudomonas syringae),MIC ([10]; Pseudomonas syringae),MBC ([11]; Pseudomonas syringae),MIC ([11]; Pseudomonas syringae),MBC ([12]; Pseudomonas syringae),MIC ([12]; Pseudomonas syringae),MBC ([13]; Pseudomonas syringae),MIC ([13]; Pseudomonas syringae),MBC ([14]; Pseudomonas syringae),MIC ([14]; Pseudomonas syringae),other results
"O=C(O)COc1ccc(Cl)cc1Cl [2,4-D]",,,,,,,,,,,,,,,,,,,,,necrotic or chlorotic symptoms on seedling cotyledons [1]: severe necrotic and chlorotic symptoms; also recorded: caused necrotic or chlorotic symptoms; root length of germlings [2]: 1.5±0.7 cm; shoot length of germlings [2]: 0 cm; necrotic or chlorotic symptoms on pepper fruit surface [3]: severe necrotic and chlorotic symptoms; also recorded: caused chlorosis and deformation of the fruit surface
"O=S(=O)([O-])[O-].[Cu+2] [CuSO4, copper sulfate]",57%,100%,,,,,,,,,,,,,,,,,,,"reduction in Pss load in infested seeds [4]: 1.9±0.5 log CFU/g; Pss reduction compared to the DMSO group ([5]; curative (1 dpi)): 1.1±0.5 log CFU/g; disease severity (number of lesions per two leaves) ([5]; curative (1 dpi), first trial): 28.1±13.9 lesions; disease severity (number of lesions per two leaves) [5, 16]: 188.4±163.5 lesions; reduction in Pss load compared to the DMSO group [5, 16]: 0.05±0.01 log CFU/g"
CCCCCCCCCCCCCCCCn1c[n+](C)c2ccccc21 [PC1],86%,100%,12.5 µM,6.25 µM,25 µM,12.5 µM,12.5 µM,6.25 µM,25 µM,6.25 µM,12.5 µM,6.25 µM,12.5 µM,6.25 µM,12.5 µM,6.25 µM,12.5 µM,6.25 µM,12.5 µM,6.25 µM,
CCN1/C(=C/c2ccc3ccccc3[n+]2CC)C=Cc2ccccc21 [PC2],86%,100%,12.5 µM,12.5 µM,25 µM,12.5 µM,50 µM,6.25 µM,50 µM,6.25 µM,25 µM,12.5 µM,25 µM,6.25 µM,25 µM,6.25 µM,25 µM,6.25 µM,25 µM,6.25 µM,
CCCCCCCCCCCCCCCC[n+]1ccn(CC#N)c1.[Cl-] [PC3],86%,100%,,,,,,,,,,,,,,,,,,,"MBC [15]: 25 µM; MIC [15]: 25 µM; MBC [6, 17]: 25 µM; MIC [6, 17]: 25 µM; MBC [7, 18]: 50 µM; MIC [7, 18]: 25 µM; MBC [8, 19]: 50 µM; MIC [8, 19]: 25 µM; MBC [9, 20]: 50 µM; MIC [9, 20]: 25 µM; MBC [10, 21]: 50 µM; MIC [10, 21]: 25 µM; MBC [11, 22]: 25 µM; MIC [11, 22]: 12.5 µM; MBC [12, 23]: 25 µM; MIC [12, 23]: 12.5 µM; MBC [13, 24]: 25 µM; MIC [13, 24]: 25 µM; MBC [14, 25]: 50 µM; MIC [14, 25]: 25 µM"
